For orientation: pIC50 means the IC50 on a negative log10 scale, so that one unit is a factor of ten. A high value points to a small IC50. Broadly, the inhibition is the share of the control response that was lost under treatment.

Data set [1] addresses Acetylcholinesterase (Electrophorus electricus, UniProt O42275).
Description: Inhibition of electric eel AChE preincubated for 5 mins followed by addition of acetylthiocholine iodide as substrate measured after 2 mins by Ellman's method
For data set [2], the target named is Cholinesterase (Equus caballus, UniProt P81908).
Description: Inhibition of equine serum BuChE preincubated for 5 mins followed by addition of butyrylthiocholine iodide as substrate measured after 2 mins by Ellman's method
In data set [3] the target is Amyloid-beta precursor protein (Homo sapiens) (UniProt P05067). To be noted: at 25 µM.
Description: Inhibition of amyloid beta (1 to 42) (unknown origin) self-aggregation at 25 uM measured after 48 hrs by ThT-assay
Data set [4] deals with Cholinesterase (Equus caballus) (UniProt P81908). Kind of data set: Potency index, ratio of IC50 donepezil to IC50 for test compound against equine serum BuChE.
In data set [5] the target is Acetylcholinesterase (Electrophorus electricus) (UniProt O42275). The data set can be described thus: Potency index, ratio of IC50 for galantamine to IC50 for test compound against electric eel AChE.
Data set [6] has the same target. Kind of data set: Potency index, ratio of IC50 for rivastigmine to IC50 for test compound against electric eel AChE.
Data set [7] has as its target Amyloid-beta precursor protein (Homo sapiens) (UniProt P05067). Kind of data set: Inhibition of amyloid beta (1 to 42) (unknown origin) aggregation assessed at 25 uM after 24 to 48 hrs by transmission electron microscopic analysis.
Data set [8] concerns SH-SY5Y. Kind of data set: Neuroprotective activity in human SH-SY5Y cells assessed as reduction of amyloid beta (1 to 42)-induced neurotoxicity measured as cell viability preincubated 30 mins followed by amyloid beta (1 to 42) peptide addition for 24 hrs by MTT assay. The data set is classed as functional, cell-based. In general terms: Formazan colour is commonly taken as a measure of viable cells.

Data set [9] is described as follows: Cytotoxicity against human SH-SY5Y cells assessed as cell viability at 1 to 50 uM measured after 24 hrs by MTT assay. It is filed as toxicity, cell-based.
Data set [10] in a line: Neuroprotective activity in human SH-SY5Y cells assessed as reduction of amyloid beta (1 to 42)-induced neurotoxicity measured as cell viability at 5 to 25 uM preincubated 30 mins followed by amyloid beta (1 to 42) peptide addition for 24 hrs by MTT assay relative to control. It is filed as functional.
For data set [11], the system named is SH-SY5Y. The data set can be described thus: Neuroprotective activity in human SH-SY5Y cells assessed as reduction of amyloid beta (1 to 42)-induced neurotoxicity measured as morphological changes preincubated 30 mins followed by amyloid beta (1 to 42) peptide addition for 24 hrs by microscopy. The data set is classed as functional, cell-based.
Data set [12] relates to SH-SY5Y. The data set can be described thus: Neuroprotective activity in human SH-SY5Y cells assessed as reduction of H2O2-induced neurotoxicity measured as increase in cell viability at 1 to 20 uM incubated for 24 hrs with H2O2-challenge by MTT assay. The data set is classed as functional, cell-based.
Data set [13] deals with SH-SY5Y. Kind of data set: Neuroprotective activity in human SH-SY5Y cells assessed as reduction of H2O2-induced neurotoxicity measured as morphological changes at 10 uM incubated for 24 hrs with H2O2-challenge by microscopy. The data set is classed as functional, cell-based.
In data set [14] the target is Acetylcholinesterase (Electrophorus electricus) (UniProt O42275). The following applies: at 100 µM.
Description: Inhibition of electric eel AChE-mediated amyloid beta (1 to 42) (unknown origin) co-aggregation at 100 uM measured after 48 hrs by ThT-assay
Data set [15] has the same target. Kind of data set: Potency index, ratio of IC50 for tacrine to IC50 for test compound against electric eel AChE.
The target is the same in data set [16]. The following applies: at 12 to 42 nM.

pIC50: −log10 of the molar value. Activity calls are given as the source filed them. No cut-off for these calls is given here.

Sequence of Amyloid-beta precursor protein (Homo sapiens) (P05067 whole entry): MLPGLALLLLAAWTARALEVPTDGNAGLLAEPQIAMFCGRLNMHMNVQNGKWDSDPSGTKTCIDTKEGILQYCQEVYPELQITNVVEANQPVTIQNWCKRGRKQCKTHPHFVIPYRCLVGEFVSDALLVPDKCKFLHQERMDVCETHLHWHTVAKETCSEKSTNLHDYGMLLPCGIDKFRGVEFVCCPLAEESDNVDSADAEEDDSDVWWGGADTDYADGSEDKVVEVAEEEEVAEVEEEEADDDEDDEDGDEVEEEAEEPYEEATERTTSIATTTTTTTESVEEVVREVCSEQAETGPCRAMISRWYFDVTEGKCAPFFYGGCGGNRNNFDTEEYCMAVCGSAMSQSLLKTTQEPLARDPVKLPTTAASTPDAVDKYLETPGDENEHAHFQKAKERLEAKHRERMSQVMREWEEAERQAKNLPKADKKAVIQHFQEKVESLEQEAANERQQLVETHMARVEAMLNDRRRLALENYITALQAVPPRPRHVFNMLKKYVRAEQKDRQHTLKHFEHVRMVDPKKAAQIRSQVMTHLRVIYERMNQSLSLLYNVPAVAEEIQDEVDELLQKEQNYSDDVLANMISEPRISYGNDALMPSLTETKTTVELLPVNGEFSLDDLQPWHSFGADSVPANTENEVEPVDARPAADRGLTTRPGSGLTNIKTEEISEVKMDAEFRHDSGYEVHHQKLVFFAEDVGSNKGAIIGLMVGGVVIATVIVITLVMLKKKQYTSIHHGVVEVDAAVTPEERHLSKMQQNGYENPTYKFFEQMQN
Sequence of Cholinesterase (P81908 whole entry): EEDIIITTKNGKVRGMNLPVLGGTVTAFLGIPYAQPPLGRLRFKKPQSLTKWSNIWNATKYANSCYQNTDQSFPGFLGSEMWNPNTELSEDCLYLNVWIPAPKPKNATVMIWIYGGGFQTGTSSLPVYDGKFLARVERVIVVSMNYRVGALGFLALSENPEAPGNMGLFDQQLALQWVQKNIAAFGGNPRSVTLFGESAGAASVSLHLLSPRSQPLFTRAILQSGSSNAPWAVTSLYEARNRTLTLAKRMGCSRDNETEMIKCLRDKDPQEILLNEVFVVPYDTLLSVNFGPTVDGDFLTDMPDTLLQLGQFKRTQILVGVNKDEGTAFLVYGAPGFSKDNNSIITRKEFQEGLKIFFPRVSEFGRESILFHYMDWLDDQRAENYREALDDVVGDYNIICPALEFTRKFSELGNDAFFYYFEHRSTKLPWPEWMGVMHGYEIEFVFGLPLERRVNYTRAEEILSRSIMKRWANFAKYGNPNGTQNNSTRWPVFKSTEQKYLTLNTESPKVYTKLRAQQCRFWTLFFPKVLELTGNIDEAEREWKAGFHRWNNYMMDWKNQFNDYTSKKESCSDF
Sequence of Acetylcholinesterase (O42275 whole entry): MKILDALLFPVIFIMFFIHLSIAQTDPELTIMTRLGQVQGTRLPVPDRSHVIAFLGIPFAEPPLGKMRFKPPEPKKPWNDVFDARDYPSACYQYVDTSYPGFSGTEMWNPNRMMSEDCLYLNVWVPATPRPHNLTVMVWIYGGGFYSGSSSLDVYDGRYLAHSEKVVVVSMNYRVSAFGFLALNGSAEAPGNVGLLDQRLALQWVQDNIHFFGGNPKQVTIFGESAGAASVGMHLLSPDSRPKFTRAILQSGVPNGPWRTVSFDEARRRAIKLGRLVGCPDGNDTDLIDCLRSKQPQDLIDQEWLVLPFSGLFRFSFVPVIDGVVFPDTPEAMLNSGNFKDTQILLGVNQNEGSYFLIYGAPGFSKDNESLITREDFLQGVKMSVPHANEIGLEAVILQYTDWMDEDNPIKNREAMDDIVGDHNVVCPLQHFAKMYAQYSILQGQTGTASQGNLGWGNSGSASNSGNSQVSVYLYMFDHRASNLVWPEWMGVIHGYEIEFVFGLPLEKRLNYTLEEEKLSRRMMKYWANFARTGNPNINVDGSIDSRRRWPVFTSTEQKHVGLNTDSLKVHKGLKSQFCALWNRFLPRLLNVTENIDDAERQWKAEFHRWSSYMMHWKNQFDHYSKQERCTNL
Sequence of Acetylcholinesterase (Electrophorus electricus) (O42275 24-633 limits assumed): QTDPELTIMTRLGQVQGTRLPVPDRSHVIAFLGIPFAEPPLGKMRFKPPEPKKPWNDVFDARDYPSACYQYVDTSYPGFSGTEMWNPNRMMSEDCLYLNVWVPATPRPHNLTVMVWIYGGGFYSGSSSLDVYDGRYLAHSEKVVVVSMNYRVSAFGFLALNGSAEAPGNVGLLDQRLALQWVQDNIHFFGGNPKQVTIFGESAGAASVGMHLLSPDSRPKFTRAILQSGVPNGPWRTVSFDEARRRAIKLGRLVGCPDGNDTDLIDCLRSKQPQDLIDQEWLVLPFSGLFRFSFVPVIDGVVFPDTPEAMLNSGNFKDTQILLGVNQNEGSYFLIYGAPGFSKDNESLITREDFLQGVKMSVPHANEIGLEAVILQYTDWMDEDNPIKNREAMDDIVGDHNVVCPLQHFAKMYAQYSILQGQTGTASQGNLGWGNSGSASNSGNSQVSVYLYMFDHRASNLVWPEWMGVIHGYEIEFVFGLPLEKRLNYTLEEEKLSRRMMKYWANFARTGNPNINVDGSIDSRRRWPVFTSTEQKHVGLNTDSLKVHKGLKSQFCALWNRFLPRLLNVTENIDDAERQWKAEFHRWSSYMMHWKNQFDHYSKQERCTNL
Sequence of Cholinesterase (Equus caballus) (P81908 whole entry): as the sequence (P81908 whole entry) above

On to `CCOC(=O)c1cnc2ccc(OC)cc2c1N1CCN(c2ncccc2C#N)CC1`, for which the results for the pIC50 in [1] and in data set [2] were 5.96 and 5.72, respectively. This compound also registered an inhibition in data set [3] of 39.8%.

In the case of `CCOC(=O)c1cnc2c(F)cccc2c1N1CCN(c2cc(C)nc3ncnn23)CC1`, the results for the Ratio IC50 in data set [4], in data set [5] and in data set [6] were 5, 32 and 46, respectively. The inhibition result in data set [7] is “Active”. In addition, the results for the Activity result in data set [8], in data set [9] and in data set [10] were “Dose-dependent effect”, “Non-Toxic” and 79 - 83%, respectively. The result in data set [11], in data set [12] and in data set [13] was Active. Moreover, the values for the pIC50 in data set [1] and in [2] were 7.01 and 6.74, respectively. Further, the inhibition amounted to 64.2% in data set [3] and 70.3% in data set [14].

As for `CCOC(=O)c1cnc2cc(C(F)(F)F)ccc2c1N1CCN(c2cc(C)nc3ncnn23)CC1`, the negative logarithm of the IC50 (pIC50) in [1] is 6.74; in data set [2] it was 6.11. For the same compound, the inhibition in data set [3] was 43.8%; in [14], 52%.

As to `CCOC(=O)c1cnc2ccc(C)cc2c1N1CCN(c2cc(C)nc3ncnn23)CC1`, the pIC50 in [1] is 5.58; in [2], 5.39. Further, the values for the inhibition in data set [3] and in data set [14] were 52.5% and 54.3%, respectively.

On to `CCOC(=O)c1cnc2ccc(F)cc2c1N1CCN(c2ncccc2C#N)CC1`, for which the results for the pIC50 in data set [1] and in data set [2] were 6.24 and 5.91, respectively. For the same compound, the inhibition came to 54.9% in [3] and 59% in data set [14].

For the compound `CCOC(=O)c1cnc2ccc(C)cc2c1N1CCN(c2ncccc2C#N)CC1`, the figures for the pIC50 in [1] and in [2] were 5.46 and 5.52, respectively. Also, the inhibition in [3] was 27.3%.

Take `CCOC(=O)c1cnc2c(F)cccc2c1N1CCN(c2ncccc2C#N)CC1`: the pIC50 in data set [1] is 6.14; in data set [2], 6.05. Moreover, the inhibition in data set [3] was determined as 47.4%; in data set [14] it was 50.3%.

With `CCOC(=O)c1cnc2ccc(OC)cc2c1N1CCN(c2cc(C)nc3ncnn23)CC1`, the inhibition result in data set [7] was “Active”. Besides, the Activity entry in data set [8] is “Dose-dependent effect”; in data set [9], “Non-Toxic”; in [10], 79 - 83%. Also, the result in data set [11], in data set [12] and in [13] was Active. For the same compound, the pIC50 in data set [1] was 6.12; in data set [2], 5.70. Moreover, the figures for the inhibition in data set [3] and in data set [14] were 61.6% and 68.7%, respectively.

For `CCOC(=O)c1cnc2cc(C(F)(F)F)ccc2c1N1CCN(c2ncccc2C#N)CC1`, the negative logarithm of the IC50 (pIC50) is 6.06 in data set [1] and 6.01 in data set [2]. For the same compound, the inhibition was 44.2% in data set [3] and 47.8% in data set [14].

With `Cc1cc(N2CCN(c3ncccc3C#N)CC2)n2ncnc2n1`, the pIC50 in data set [1] was 5.86; in data set [2], 6.11. The inhibition in data set [3] amounted to 46.8%; in [14], 49.4%.

With `CCOC(=O)c1cnc2ccc(F)cc2c1N1CCN(c2cc(C)nc3ncnn23)CC1`, the Ratio IC50 in data set [15] came out at 3.2; in data set [4], 14; in data set [5], 74; in [6] it was 106. The inhibition result in data set [7] and in [16] was “Active” throughout. The figures for the Activity entry in data set [8], in data set [9] and in data set [10] were “Dose-dependent effect”, “Non-Toxic” and 79 - 83%, respectively. The result in data set [11], in data set [12] and in [13] was Active. Besides, the values for the pIC50 in data set [1] and in [2] were 7.38 and 6.29, respectively. Besides, the inhibition is 72.9% in data set [3] and 80.5% in [14].
